In US20100119452A1, “SCREENING METHOD” (Takeda Pharmaceutical Company Limited, priority 2007, published 2010):

What follows are compounds tested on androgen receptors (assay: Reporter assay using LNCaP-hr cells (6k-PSA promoter, firefly luciferase)). Conditions: LNCaP-hr cells with PSA promoter-luciferase, 24 hours after addition.
Assay type: cell-based, human
Method: As a negative control compound, conventional AR antagonist, bicalutamide was used. 6k-PSA promoter and firefly luciferase gene were used as a PSA promoter and a reporter gene, respectively.
LNCaP-hr cells transfected with a reporter gene linked to a PSA promoter were plated on 96-well plates at a density of 50,000 cells/100 μL/well, to which the test compounds were added after the cells were cultured for 8 hours. The reporter activity was determined 24 hours after the addition of the test compounds. The suppressing activity of the test compounds on the reporter gene was calculated based on the assumption that the reporter activity in the cells without the addition of the test compounds (control group) was 100% and the reporter activity of the non-treated LNCaP-hr cells without introduction of the reporter gene was 0%.

Q: Which “Suppressing activity on the reporter gene” value (from here on “Suppressing activity”) does the source give for Cc1cc(-c2ccc(C#N)cc2)c(C)n1Cc1cn[nH]c1C(C)(C)O [Compound 9] here?
A: The value was “Concentration-dependent suppressing activity on the reporter gene was observed”.

Q: With Cc1cc(-c2ccc(C#N)cc2)c(C)n1Cc1cc(C(F)(F)F)n[nH]1 [Compound 6] as the compound, how does the “Suppressing activity” value read?
A: Its value is “Concentration-dependent suppressing activity on the reporter gene was observed”.

Q: How did the “Suppressing activity” value turn out when Cc1cc(-c2ccc(C#N)cc2)c(C#N)n1Cc1cc(C(F)(F)F)n[nH]1 [Compound 8] was run?
A: Its value is “Concentration-dependent suppressing activity on the reporter gene was observed”.

These compounds were tested on LNCaP-hr cells (assay: Antitumor test using nude mice transplanted with LNCaP-hr cells). Conditions: castrated nude mice, LNCaP-hr subcutaneous, 15 mg/kg orally twice daily for three weeks.
Assay type: in vivo
Method: LNCaP-hr cells were suspended in Matrigel, and 5×10^6 cells were transplanted subcutaneously into the flank of castrated nude mice. When tumor volume reached approximately 100 mm^3, the animals were grouped based on the tumor volume, and administered orally with 15 mg/kg body weight of the compound twice daily for three weeks. The tumor volume was calculated based on the assumption that the volume of the control group was 100% and the volume of the treated group at the start of the administration was 0% (T/C %).

Q: Cc1cc(-c2ccc(C#N)cc2)c(C)n1Cc1cn[nH]c1C(C)(C)O [Compound 9] was tested. Which Antitumor activity did it give?
A: The Antitumor activity was “antitumor activity was observed”.

Q: Cc1cc(-c2ccc(C#N)cc2)c(C)n1Cc1cc(C(F)(F)F)n[nH]1 [Compound 6] was tested. Which Antitumor activity did it give?
A: The Antitumor activity was “antitumor activity was observed”.

Q: For Cc1cc(-c2ccc(C#N)cc2)c(C#N)n1Cc1cc(C(F)(F)F)n[nH]1 [Compound 8], which Antitumor activity is on record?
A: The Antitumor activity was “antitumor activity was observed”.

Same assay, conditions: castrated nude mice, LNCaP-hr subcutaneous, 15 mg/kg orally twice daily for three weeks; control 100%, start of administration 0%

Q: With Cc1cc(-c2ccc(C#N)cc2)c(C)n1Cc1cn[nH]c1C(C)(C)O [Compound 9] as the compound, how does the “T/C (tumor volume)” value read?
A: Its value is “T/C = 24%”.

Q: Which “T/C (tumor volume)” value does the source give for Cc1cc(-c2ccc(C#N)cc2)c(C)n1Cc1cc(C(F)(F)F)n[nH]1 [Compound 6] here?
A: The value was “T/C = −3%”.

Q: How did the “T/C (tumor volume)” value turn out when Cc1cc(-c2ccc(C#N)cc2)c(C#N)n1Cc1cc(C(F)(F)F)n[nH]1 [Compound 8] was run?
A: Its value is “T/C = −5%”.
